From publication PMC12655426 (Pharmaceutics, 2025)

Assays:
OATP1A2 = molecular target: T1, OATP1A2 (Homo sapiens, UniProt P46721); test: OTA uptake in OATP1A2-overexpressing HEK293 cells (screen and kinetics)
T1 sequence (P46721 1-670): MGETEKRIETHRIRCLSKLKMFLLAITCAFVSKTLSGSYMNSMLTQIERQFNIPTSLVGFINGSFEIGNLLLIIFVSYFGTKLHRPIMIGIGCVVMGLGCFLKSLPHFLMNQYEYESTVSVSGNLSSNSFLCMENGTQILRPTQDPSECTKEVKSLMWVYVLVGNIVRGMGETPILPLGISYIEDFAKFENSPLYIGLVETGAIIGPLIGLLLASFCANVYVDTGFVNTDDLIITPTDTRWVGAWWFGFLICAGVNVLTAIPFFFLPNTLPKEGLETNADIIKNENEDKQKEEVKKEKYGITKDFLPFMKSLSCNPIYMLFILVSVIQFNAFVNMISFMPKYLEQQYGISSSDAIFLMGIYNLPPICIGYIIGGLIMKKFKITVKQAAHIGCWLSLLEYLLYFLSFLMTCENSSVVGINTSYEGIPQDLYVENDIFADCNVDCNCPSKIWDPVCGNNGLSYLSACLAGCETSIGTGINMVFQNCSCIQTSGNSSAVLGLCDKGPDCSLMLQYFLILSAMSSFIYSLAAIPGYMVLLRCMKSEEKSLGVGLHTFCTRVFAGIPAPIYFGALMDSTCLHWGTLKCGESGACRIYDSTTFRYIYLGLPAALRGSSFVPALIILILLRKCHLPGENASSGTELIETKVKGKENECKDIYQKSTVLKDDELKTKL
Method: The following experiments were conducted at the University of Washington. Mock HEK293 cells and transporter-overexpressing HEK293 cells (i.e., OAT1–4, OCT2, MATE1/2K, OCTN1, OATP1A2), mock CHO cells, and OCTN2-overexpressing CHO cells were plated in 96 well plates coated with 0.05 mg/mL of poly-D-lysine in 50 μL DPBS at a density of 800,000 cells/mL and grown until reaching over 90% of confluence. […] For uptake experiments in MATE1- and MATE2-K-expressing HEK293 cells, the pH of the incubation buffer was adjusted to 8.0 to facilitate substrate uptake. For uptake experiments in OATP1A2-expressing and OAT4-expressing HEK293 cells, the pH of the incubation buffer was adjusted to 6.5 to mimic pH of the urinary filtrate, as these are apical transporters. The incubation buffer was kept at pH 7.4 for all other transporters. […] Uptake was quenched by removing the substrates/inhibitors and washing the cells 3 times with 200 μL of ice-cold HBSS++. […] The precipitated protein was allowed to dry and subsequently solubilized overnight in 1M NaOH, neutralized with 1 M HCl the next day, and measured by BCA assay.
(§1) All cellular-based assays were conducted in technical triplicate across three independent experiments. […] This cutoff was defined a priori. […] Jnet was then treated as the initial uptake rate, and Km and Vmax values were obtained by fitting the Michaelis–Menten equation to the substrate-concentration data as described above. Intrinsic clearance (CLint) was then calculated by the formula, CLint=Vmax/Km using Vmax and Km values as calculated above. […] At steady-state, the mass balance for intracellular concentrations assuming symmetric passive permeabilities (Papical = Pbasal, taken as Papp from mock assays) and apical efflux gives: Ccell= Cbasal/1+ ke/Pa where Cbasal is the concentration in the basal chamber and ke is the first-order elimination with respect to BCRP. Because the asymmetric efflux ratio ERa is defined as: ERa=1+ ke/Pa

human BCRP = molecular target: T2, human BCRP (Homo sapiens, UniProt Q9UNQ0); test: Bidirectional transport of OTA in BCRP-expressing MDCK-II cells; details: net B to A flux, 1.56 to 100 μM OTA
T2 sequence (Q9UNQ0 1-655): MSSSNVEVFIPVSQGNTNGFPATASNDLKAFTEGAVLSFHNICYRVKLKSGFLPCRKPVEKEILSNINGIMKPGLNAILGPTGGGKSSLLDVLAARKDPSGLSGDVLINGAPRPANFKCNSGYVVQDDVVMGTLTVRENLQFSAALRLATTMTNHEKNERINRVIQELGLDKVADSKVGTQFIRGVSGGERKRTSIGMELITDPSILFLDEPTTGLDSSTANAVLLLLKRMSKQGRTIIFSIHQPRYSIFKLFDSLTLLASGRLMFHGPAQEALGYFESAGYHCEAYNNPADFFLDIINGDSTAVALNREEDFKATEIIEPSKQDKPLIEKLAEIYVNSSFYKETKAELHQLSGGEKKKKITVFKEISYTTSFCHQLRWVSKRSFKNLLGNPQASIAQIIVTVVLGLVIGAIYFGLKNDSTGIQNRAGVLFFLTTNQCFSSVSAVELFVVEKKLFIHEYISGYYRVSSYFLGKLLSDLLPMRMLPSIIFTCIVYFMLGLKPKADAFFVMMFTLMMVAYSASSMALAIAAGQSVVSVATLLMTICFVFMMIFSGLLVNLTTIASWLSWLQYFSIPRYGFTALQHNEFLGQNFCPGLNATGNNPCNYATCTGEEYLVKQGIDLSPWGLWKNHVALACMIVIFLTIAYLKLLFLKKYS
Method: as §1

hPEPT (PEPT1, PEPT2) = test: OTA uptake in PEPT1- and PEPT2-expressing MDCK-II cells; assay type: in vitro ADME, human; details: 10 μM OTA, pH 6.5, 5 min
[1] = single fasted volunteer, microdose of radioactive OTA in ethanol, within 8 h, not absolute bioavailability; cited from earlier work
[2] = 0.5 mg/kg oral, rats, cited from earlier work
MRP2 = details: read-out: IC50, inhibition of MRP2-mediated p-aminohippurate efflux; cited from earlier work

**Q.** With `C[C@@H]1Cc2c(Cl)cc(C(=O)N[C@@H](Cc3ccccc3)C(=O)O)c(O)c2C(=O)O1` [OTA, Ochratoxin A] as the molecule, how does the Vmax (OATP1A2; HEK293, 5 min, 37 °C, pH 6.5, mock-corrected) read?
**A.** 801.0 ± 133.9 pmol/mg/min

**Q.** What about the microsomal CLint (OATP1A2; human, other cell line, pH 6.5) of the same molecule?
**A.** 21.6 ± 2.3 µL/min/mg

**Q.** And the Km at 5 min (OATP1A2; human, pH 6.5)?
**A.** 37.3 ± 6.2 µM

**Q.** And the “apparent CLint estimated by the slope of the linearly fitted line” value (human BCRP)?
**A.** 0.29 ± 0.03 µL/min/cm^2

**Q.** What about the “hPEPT-mediated transport of OTA” value (hPEPT (PEPT1, PEPT2)) of the same molecule?
**A.** did not observe any hPEPT-mediated transport

**Q.** And the “percentage of administered radioactivity detected in plasma” value [1]?
**A.** ~ 93%

**Q.** And the “OTA accumulated in kidney tissue” value ([2]; after 24 h)?
**A.** over 400 pmol/g

**Q.** What about the “dose recovered in urine and feces” value ([2]; after 96 h) of the same molecule?
**A.** 15%

**Q.** What about the IC50 (MRP2) of the same molecule?
**A.** 58 µM
